# Reference: paper PMC11683478, “Bioprospecting of culturable marine biofilm bacteria for novel antimicrobial peptides” (iMeta, 2024)
# How the values were obtained:
# Experiment in all cases: Antibacterial screen at 200 μg/mL (cell density vs control)
# Type in all cases: cell-based
# Settings in all cases: peptide 200 μg/mL, CAMHB, 5 × 10^5 CFU/mL, 37°C, 12 h, OD600; control (no AMP) = 1; three biological replicates
# [1] = test system: Salmonella bongori ATCC 43975
# Procedure: (§1) Eight bacterial strains were utilized in the antibacterial experiment. S. aureus ATCC 12600, B. subtilis ATCC 23857, E. coli ATCC 11775, and A. baumannii ATCC 19606 were purchased from Shanghai Beinuo Biology. M. luteus ATCC 4698 and S. bongori ATCC43975 were purchased from Shanghai Beisi Biotechnology. V. owensii ems001 and V. alginolyticus xv22 from the intestines of diseased shrimps were isolated in our laboratory. All strains were cultured in the cation‐adjusted Mueller‐Hinton broth (CAMHB) at 37°C to the logarithmic growth phase (OD600 = 0.5). Then, bacteria were gradient‐diluted using fresh CAMHB to a bacterial density of 5 × 10^5 CFU/mL. Antibacterial experiments were performed in a 96‐well plate with 200 μg/mL final peptide concentration. Four experimental groups were set up, including a blank control (200 μL CAMHB), a negative control (180 μL CAMHB plus 20 μL peptide), a positive control (180 μL bacterial culture plus 20 μL ultrapure water), and an experimental group (180 μL bacterial culture plus 20 μL peptide). Three biological replicates were conducted for each group, and OD600 values were measured after incubation at 37°C for 12 h. Every observed value was removed from the blank control group value. The value of the experimental group was then subtracted from the value of the negative control group therefore eradicating the effect of the peptide on the OD measurement. Student's t‐test allowed the estimation of a notable variation between the experimental and positive groups using a p‐value of 0.05 as the limit. […] The MIC of a peptide against a bacterium was determined as the minimum peptide concentration at which there was no visible bacterial growth.
# [2] = test system: Micrococcus luteus ATCC 4698
# Procedure: as §1
# [3] = test system: Staphylococcus aureus ATCC 12600
# Procedure: as §1
# [4] = test system: Vibrio alginolyticus xv22
# Procedure: as §1
# [5] = test system: Bacillus subtilis ATCC 23857
# Procedure: as §1
# [6] = test system: Vibrio owensii ems001
# Procedure: as §1
# [7] = test system: Escherichia coli ATCC 11775
# Procedure: as §1
# [8] = test system: Acinetobacter baumannii ATCC 19606
# Procedure: as §1
Sequence,"cell density relative to control, S. bongori ATCC 43975 [1]","cell density relative to control, M. luteus ATCC 4698 [2]","cell density relative to control, S. aureus ATCC 12600 [3]","cell density relative to control, V. alginolyticus xv22 [4]","cell density relative to control, B. subtilis ATCC 23857 [5]","cell density relative to control, V. owensii ems001 [6]","cell density relative to control, E. coli ATCC 11775 [7]","cell density relative to control, A. baumannii ATCC 19606 [8]"
"MCTRSCRPNLVKC [Cand-47, chemically synthesized candidate AMP predicted from marine biofilm bacteria]",0.835,1,1,1,1,1,1,0.895
"MRRFCCCRCSCCCWPS [Cand-25, chemically synthesized candidate AMP predicted from marine biofilm bacteria]",0.847,1,0.422,1,1,0.067,0.835,1
"MLTTIAKSTKKCKPKSCCACSLYRC [Cand-216, chemically synthesized candidate AMP predicted from marine biofilm bacteria]",0.556,0.978,0.86,0,0.845,0.018,0.832,1
"MCRFKCKVRTTITRPVCCWLIFM [Cand-168, chemically synthesized candidate AMP predicted from marine biofilm bacteria]",0.482,1,1,0.418,0,0,0.553,1
"MRPSMCRIGGRL [Cand-38, chemically synthesized candidate AMP predicted from marine biofilm bacteria]",1,1,0.771,1,0.805,1,0.861,0.836
"MKRLKKCVLSSLSI [Cand-126, chemically synthesized candidate AMP predicted from marine biofilm bacteria]",0.299,0,0,0.039,0.301,1,0.448,0.191
"MLRRIGRMWRKLHPHGQ [Cand-10, chemically synthesized candidate AMP predicted from marine biofilm bacteria]",0.009,0.001,0.007,0.001,0.032,0.041,0.001,0.009
"MCRWWPDWWHHRWWHCRGCCRFCRG [Cand-111, chemically synthesized candidate AMP predicted from marine biofilm bacteria]",0.794,1,0.202,0.477,1,0.357,0.669,1
"MRPGMCRIGGRL [Cand-22, chemically synthesized candidate AMP predicted from marine biofilm bacteria]",0.876,1,0.777,0.862,1,1,1,1
"MQPILKKAAPKHVGYFYKCYL [Cand-119, chemically synthesized candidate AMP predicted from marine biofilm bacteria]",0.699,1,0,0.73,0.838,0.046,0.618,0.908
"MYSVWPKSLRSVAGRGPKHRC [Cand-139, chemically synthesized candidate AMP predicted from marine biofilm bacteria]",0.426,1,0,0.013,0.931,0.342,0.764,0.959
"MSPRICSVISCLMKLRC [Cand-11, chemically synthesized candidate AMP predicted from marine biofilm bacteria]",0.522,0.931,0.019,0.018,1,0.023,0.967,0.023
"MGRISCMWSSSYKCRFNCYF [Cand-20, chemically synthesized candidate AMP predicted from marine biofilm bacteria]",1,1,0.809,0.635,1,0.818,1,0.937
"MICWCAKICCSCSAFRRWWKRNGTAC [Cand-57, chemically synthesized candidate AMP predicted from marine biofilm bacteria]",0.134,1,0,0,0,0.002,0.456,0.653
"MPKRPWRACSSIG [Cand-212, chemically synthesized candidate AMP predicted from marine biofilm bacteria]",0.839,1,0.896,1,1,1,1,0.835
